Experimental data taken from PubChem BioAssay AID330 (DTP/NCI, 2004).
Values joined by “and” are separate entries in the source; they are usually repeats but may differ in a detail not shown here. Equal entries are not always repeated. Inconclusive results and toxic doses are left out. Rule for the calls: active = survival T/C of 150% or more; inactive = T/C below 125% in these data.

System: P388 leukemia ip, CD2F1 mice, survival T/C
Experiment: NCI In Vivo Anticancer Drug Screen. Data for tumor model P388 Leukemia (intraperitoneal) in CD2F1 (CDF1) mice
Conditions: endpoint: median survival time, higher = longer survival
Procedure, shortened: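 Mice carrying the transplanted tumor received test compound or vehicle. Survival was recorded in each group, and the value is the treated-group measurement divided by that of the vehicle-treated control group.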

[1] = dose: 25.0 mg/kg/injection, schedule: Q01DX009 (ip), vehicle: saline with Tween-80
[2] = dose: 50.0 mg/kg/injection, schedule: Q01DX009 (ip), vehicle: saline with Tween-80
[3] = dose: 50.0 mg/kg/injection, schedule: Q01DX009 (ip), vehicle: saline
[4] = dose: 100.0 mg/kg/injection, schedule: Q01DX009 (ip), vehicle: saline with Tween-80
[5] = dose: 100.0 mg/kg/injection, schedule: Q01DX009 (ip), vehicle: saline
[6] = dose: 200.0 mg/kg/injection, schedule: Q01DX009 (ip), vehicle: saline with Tween-80
[7] = dose: 200.0 mg/kg/injection, schedule: Q01DX009 (ip), vehicle: saline
[8] = dose: 50.0 mg/kg/injection, schedule: Q01DX005 (ip), vehicle: Klucel (hydroxypropylcellulose) (HPC)
[9] = dose: 100.0 mg/kg/injection, schedule: Q01DX005 (ip), vehicle: Klucel (hydroxypropylcellulose) (HPC)
[10] = dose: 200.0 mg/kg/injection, schedule: Q01DX005 (ip), vehicle: Klucel (hydroxypropylcellulose) (HPC)
[11] = dose: 30.0 mg/kg/injection, schedule: Q01DX005 (ip), vehicle: Klucel (hydroxypropylcellulose) (HPC)
[12] = dose: 60.0 mg/kg/injection, schedule: Q01DX005 (ip), vehicle: Klucel (hydroxypropylcellulose) (HPC)

Measured: T/C

CCc1ccc(NC(=O)NC(=O)c2c(F)cccc2F)cc1
inactive: [1] 114 % of control | dose: 25.0 mg/kg/injection, schedule: Q01DX009 (ip), vehicle: saline 106 % of control | [2] 106 % of control and 116 % of control | [3] 103 % of control and 115 % of control | [4] 100 % of control and 120 % of control | [5] 101 % of control and 98 % of control | [6] 120 % of control and 97 % of control | [7] 100 % of control and 103 % of control

C=CC(=NC(C)(C)C)Nc1ccccc1
inactive: dose: 6.25 mg/kg/injection, schedule: Q01DX009 (ip), vehicle: saline with Tween-80 101 % of control | dose: 12.5 mg/kg/injection, schedule: Q01DX009 (ip), vehicle: saline with Tween-80 105 % of control | [1] 108 % of control

CC1(C)O[S+](c2ccccc2)c2ccccc21 (stereo not drawn)
inactive: dose: 50.0 mg/kg/injection, schedule: Q01DX009 (ip), vehicle: Klucel (hydroxypropylcellulose) (HPC) 102 % of control | dose: 100.0 mg/kg/injection, schedule: Q01DX009 (ip), vehicle: Klucel (hydroxypropylcellulose) (HPC) 107 % of control | dose: 200.0 mg/kg/injection, schedule: Q01DX009 (ip), vehicle: Klucel (hydroxypropylcellulose) (HPC) 108 % of control

Cc1n[nH]c(=S)n1C
inactive: dose: 43.75 mg/kg/injection, schedule: Q04DX003 (ip), vehicle: saline sonified 95 % of control | dose: 87.5 mg/kg/injection, schedule: Q04DX003 (ip), vehicle: saline sonified 100 % of control | dose: 175.0 mg/kg/injection, schedule: Q04DX003 (ip), vehicle: saline sonified 90 % of control

CCC(C)(S)CN (stereo not drawn)
inactive: dose: 100.0 mg/kg/injection, schedule: Q01DX001 (ip), vehicle: saline 90 % of control | dose: 200.0 mg/kg/injection, schedule: Q01DX001 (ip), vehicle: saline 90 % of control | dose: 400.0 mg/kg/injection, schedule: Q01DX001 (ip), vehicle: saline 92 % of control

CCC[CH2][Sn]([CH3])([CH3])[CH2]CCN(C)C
inactive: [3] 98 % of control | [5] 98 % of control | [7] 88 % of control

O=C(O)c1oc2ccccc2c1C=C(c1ccccc1)c1ccccc1
inactive: [2] 101 % of control | [4] 101 % of control

COC(=O)Cc1nc2c(=O)[nH]c(N)nc2[nH]c1=O
inactive: dose: 12.5 mg/kg/injection, schedule: Q01DX005 (ip), vehicle: Klucel (hydroxypropylcellulose) (HPC) 95 % of control | dose: 25.0 mg/kg/injection, schedule: Q01DX005 (ip), vehicle: Klucel (hydroxypropylcellulose) (HPC) 96 % of control | [8] 102 % of control and 104 % of control

NCC(=O)Nc1ccc(O)cc1
inactive: dose: 100.0 mg/kg/injection, schedule: Q01DX009 (ip), vehicle: saline sonified 104 % of control | dose: 100.0 mg/kg/injection, schedule: Q04DX003 (ip), vehicle: saline sonified 110 % of control | dose: 200.0 mg/kg/injection, schedule: Q04DX003 (ip), vehicle: saline sonified 110 % of control | dose: 264.0 mg/kg/injection, schedule: Q04DX003 (ip), vehicle: saline with Tween-80 109 % of control | dose: 400.0 mg/kg/injection, schedule: Q04DX003 (ip), vehicle: saline with Tween-80 109 % of control | dose: 600.0 mg/kg/injection, schedule: Q04DX003 (ip), vehicle: saline with Tween-80 109 % of control

N/C(C/C(=N/OC(=O)c1ccccc1)OC(=O)c1ccccc1)=N/O
inactive: dose: 100.0 mg/kg/injection, schedule: Q04DX003 (ip), vehicle: saline 101 % of control | dose: 200.0 mg/kg/injection, schedule: Q04DX003 (ip), vehicle: saline 107 % of control | dose: 400.0 mg/kg/injection, schedule: Q04DX003 (ip), vehicle: saline 99 % of control

OCC[Se][Se]CCO
inactive: dose: 1.25 mg/kg/injection, schedule: Q01DX009 (ip), vehicle: Klucel (hydroxypropylcellulose) (HPC) 103 % of control | dose: 2.5 mg/kg/injection, schedule: Q01DX009 (ip), vehicle: Klucel (hydroxypropylcellulose) (HPC) 100 % of control | dose: 5.0 mg/kg/injection, schedule: Q01DX009 (ip), vehicle: Klucel (hydroxypropylcellulose) (HPC) 103 % of control

CN(C#N)CCc1ccccc1
inactive: [2] 100 % of control | [4] 96 % of control

c1ccc(Nc2nn[nH]n2)cc1
inactive: [8] 109 % of control | [9] 107 % of control | [10] 109 % of control

CC1(c2ccccc2)C(=O)c2ccccc2N1O (stereo not drawn)
inactive: dose: 50.0 mg/kg/injection, schedule: Q04DX002 (ip), vehicle: saline 98 % of control | dose: 100.0 mg/kg/injection, schedule: Q04DX002 (ip), vehicle: saline 100 % of control | dose: 200.0 mg/kg/injection, schedule: Q04DX002 (ip), vehicle: saline 101 % of control

Cc1ccc(C2OC(c3ccc(C)cc3)C(C)C(=O)C2C)cc1 (stereo not drawn)
inactive: [3] 90 % of control | [5] 94 % of control | [7] 99 % of control

Nc1cc2[nH]ccc2c(=O)[nH]1
inactive: dose: 50.0 mg/kg/injection, schedule: Q01DX005 (ip), vehicle: saline 108 % of control | dose: 100.0 mg/kg/injection, schedule: Q01DX005 (ip), vehicle: saline 113 % of control | dose: 200.0 mg/kg/injection, schedule: Q01DX005 (ip), vehicle: saline 114 % of control

C/C(=N\N=C\N(C)S(=O)(=O)c1ccc(C)cc1)c1ccccc1
inactive: [8] 104 % of control | [9] 98 % of control | [10] 95 % of control

C/C(=N\NC(=S)N1CCCCCCCCCCCC1)c1ccccn1
inactive: dose: 6.25 mg/kg/injection, schedule: Q04DX003 (ip), vehicle: Klucel (hydroxypropylcellulose) (HPC) 101 % of control | dose: 12.5 mg/kg/injection, schedule: Q04DX003 (ip), vehicle: Klucel (hydroxypropylcellulose) (HPC) 100 % of control and 102 % of control and 117 % of control | dose: 25.0 mg/kg/injection, schedule: Q04DX003 (ip), vehicle: Klucel (hydroxypropylcellulose) (HPC) 100 % of control and 113 % of control and 120 % of control | dose: 50.0 mg/kg/injection, schedule: Q04DX003 (ip), vehicle: Klucel (hydroxypropylcellulose) (HPC) 93 % of control

CC(C)(C)c1ccc(Sc2cccc3c2C(=O)c2c(Sc4cccc(F)c4)cccc2C3=O)cc1
inactive: dose: 100.0 mg/kg/injection, schedule: Q04DX002 (ip), vehicle: saline with Tween-80 99 % of control | dose: 200.0 mg/kg/injection, schedule: Q04DX002 (ip), vehicle: saline with Tween-80 89 % of control | dose: 400.0 mg/kg/injection, schedule: Q04DX002 (ip), vehicle: saline with Tween-80 95 % of control

NC(Cc1cc(I)c(O)c(I)c1)C(=O)O (stereo not drawn)
inactive: [2] 110 % of control | [4] 108 % of control | [6] 88 % of control

NC(=S)c1ccc(N=Cc2ccccc2)cc1
inactive: dose: 12.5 mg/kg/injection, schedule: Q01DX001 (ip), vehicle: Klucel (hydroxypropylcellulose) (HPC) 101 % of control | dose: 25.0 mg/kg/injection, schedule: Q01DX001 (ip), vehicle: Klucel (hydroxypropylcellulose) (HPC) 101 % of control | dose: 50.0 mg/kg/injection, schedule: Q01DX001 (ip), vehicle: Klucel (hydroxypropylcellulose) (HPC) 95 % of control

Cc1noc(NS(=O)(=O)c2ccc(NC(=O)NCCCl)cc2)c1C
inactive: [11] 102 % of control | [12] 98 % of control | dose: 120.0 mg/kg/injection, schedule: Q01DX005 (ip), vehicle: Klucel (hydroxypropylcellulose) (HPC) 95 % of control | dose: 240.0 mg/kg/injection, schedule: Q01DX005 (ip), vehicle: Klucel (hydroxypropylcellulose) (HPC) 97 % of control

CC(C)(Cc1nc2ccccc2[nH]1)Cc1nc2ccccc2[nH]1
inactive: dose: 7.5 mg/kg/injection, schedule: Q01DX005 (ip), vehicle: Klucel (hydroxypropylcellulose) (HPC) 99 % of control | dose: 15.0 mg/kg/injection, schedule: Q01DX005 (ip), vehicle: Klucel (hydroxypropylcellulose) (HPC) 94 % of control | [11] 91 % of control | [12] 90 % of control
